Seven compounds from PubChem BioAssay AID2060896 (Molecular Pharmacology Branch, DTP, NCI, 2025) can be followed below.

The experiment relates to 941728-121-R-J1-PDC complex spheroid viability. As to the kind of experiment: Anticancer human tumor 941728-121-R-J1-PDC patient-derived lung adenocarcinoma cell line growth inhibition [RAS]. The note with it: for viability, T/C: stronger effect = lower value. An excerpt:
RAS pathway inhibitors in Combinations in Complex Spheroids
A high-throughput screen of multi-cell type tumor spheroids was designed to identify active combinations of RAS pathway inhibitors and targeted small molecules. Complex spheroids include a stromal component modeled by human endothelial cells (HUVEC) and fibroblasts modeled by human mesenchymal stem cells (MSCs). The concentration ranges selected for each drug and investigational agent were based upon clinically achievable concentrations if the clinical Cmax of the agent was known.
Compounds. The drugs and investigational agents: abemaciclib (NSC768073), cobimetinib (NSC768068), divarasib (GDC6063, NSC841802), docetaxel (NSC628503), GDC-1971 (RLY-1971, NSC841576), gemcitabine (NSC613327), inavolisib (NSC800729), ipatasertib (NSC767898), KB-0742 (NSC834161), MRTX-1133 (NSC836407), osimertinib (NSC779217), RMC-4630 (NSC839698), RMC-6236 (NSC851965), RMC-6291 (NSC852671), Ro-3306 (NSC812927), sapanisertib (NSC764658), SN-38 (NSC673596), staurosporine (NSC755774), SY5609 (NSC837396), and tovorafenib (DAY101, NSC766906), were obtained from the National Cancer Institute (NCI) Developmental Therapeutics Program Chemical Repository. The FDA-approved anticancer drug set is available from the NCI Developmental Therapeutics Program. […] The stock solutions were prepared in dimethyl sulfoxide (DMSO, Sigma-Aldrich, St. Louis, MO, cat. D2650) at 800-fold the tested concentration and stored at -70 degrees C prior to their use. All drugs and investigational agents were tested over a range starting from a high concentration at or near the clinical Cmax and decreasing in half-log increments. If the clinical Cmax for an agent had not been determined, the highest concentration tested was 10 microM.
Cell Culture. All cells were maintained in an incubator at 37 degrees C and 5% CO2 with 95% humidity. The PDC lines were cultured according to standard operating procedures established by the NCI PDMR. All PDCs were thawed and cultured in Matrigel-coated flasks prepared with a working solution of 1X Ham's F-12 nutrient mix, without supplementation (Invitrogen, Waltham, MA, cat. 11765054), 100 U/mL penicillin-streptomycin (Invitrogen, cat. 15140122), and 2.5% Matrigel (Corning Inc., Corning, NY, cat. 354248) for the first three passages. The 362531-283-R-J2-PDC and 782815-120-R-J1-PDC lines were cultured in 6C/Colon 1B media, which includes advanced DMEM/F-12 (Thermo Fisher Scientific, cat. 12634028), 10 mM HEPES (Thermo Fisher Scientific, cat. 15630080), 1X GlutaMAX supplement (Thermo Fisher Scientific, cat. 35050061), 0.1 mg/mL primocin (InvivoGen, San Diego, CA, cat. ant-pm-2), 10% defined fetal bovine serum, heat inactivated (HyClone Laboratories Inc., Logan, UT, cat. SH30070.03HI), 50% L-WRN conditioned media (ATCC, cat. CRL-3276), 1.25 mM N-Acetyl-L-cysteine (Sigma-Aldrich, cat. A9165), 10 mM nicotinamide (Sigma-Aldrich, cat. N0636), 1X B-27 supplement (Thermo Fisher Scientific, cat. 17504044), 1X N-2 supplement (Thermo Fisher Scientific, cat. 17502048), 50 ng/mL human EGF (Thermo Fisher Scientific, cat. PHG0311), and 10 microM Y-27632 dihydrochloride (Tocris Bioscience, cat. 1254). The K12877-001-R-J1-PDC line was cultured in 6I media, which includes all 6C/Colon 1B media plus 10 ng/mL human FGF-10 (PeproTech, cat. 100-26), 1 ng/mL human FGF-2 (PeproTech, cat. 100-18B), 1 µM prostaglandin E2 (Tocris Bioscience, cat. 2296), […] hydrocortisone (Sigma-Aldrich, cat. H4001), and […] bovine insulin (Sigma-Aldrich, cat. I6634). The K86415-001-R-J1-PDC line was cultured in 6D media, which includes all 6C/Colon 1B media components minus the L-WRN conditioned media. The 485176-168-R4-J1-PDC was cultured in PANC media, which includes all 6C/Colon 1B media plus 100 ng/mL human FGF-10 (PeproTech, cat. 100-26), 500 nM SB-431542 (Selleckchem, cat. S1067), and 10 nM gastrin (Tocris Bioscience, cat. 3006). […]

Several values for one entry are separate records, joined by “and”; a condition that tells them apart may be missing. Equal values may be shown once.
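Note: spheroids exposed to compounds for 7 days before readout.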

What is called viability, T/C is the ratio of treated to control. `CC(=O)OC12COC1CC(O)C1(C)C(=O)C(O)C3=C(C)C(OC(=O)C(O)C(NC(=O)OC(C)(C)C)c4ccccc4)CC(O)(C(OC(=O)c4ccccc4)C21)C3(C)C` (stereo unspecified): the viability, T/C is, setting by setting: (compound 0.0316 µM) 51.2% [middle of 4 runs]; (compound 0.1 µM) 54.9% [middle of 4 runs]; (compound 0.316 µM) 48.2% [middle of 4 runs]; (compound 1 µM) 49% [middle of 4 runs]; (compound 3.16 µM) 47.4% [middle of 4 runs]; (compound 10 µM) 56.4% [middle of 4 runs].
Usually IC50 stands for the concentration that gives 50% inhibition. For the compound `CC1(O)CCCC1n1c(=O)c(C(F)F)cc2cnc(NC3CCN(S(C)(=O)=O)CC3)nc21` (stereo unspecified), the viability, T/C (compound 0.0316 µM) was 87% [middle of 4 runs]; the viability, T/C (compound 0.1 µM) is 84.6% [middle of 4 runs]; the viability, T/C (compound 0.316 µM) was 75.3% [middle of 4 runs]; the viability, T/C (compound 1 µM) is 83.9% [middle of 4 runs]; the viability, T/C (compound 10 µM) was 51.8% [middle of 4 runs]. For the same compound, the 50% inhibitory concentration (IC50) (curve of compound) is 5940 nM and > 10000 nM and 7430 nM.
For `CCC(CC)c1cc(NC2CCC(N)C2)n2nccc2n1` (stereo unspecified), the viability, T/C is 105% [middle of 4 runs] (compound 0.1 µM), 95.6% [middle of 4 runs] (compound 0.316 µM), 30.5% [middle of 4 runs] (compound 3.16 µM) and 44% [middle of 4 runs] (compound 10 µM). Further, the IC50 (curve of compound) is 2030 nM and 2530 nM and 2050 nM.
Regarding `Cc1nc(N2CCC3(CC2)COC(C)C3N)c(CO)nc1Sc1ccnc(N)c1Cl` (stereo unspecified), the viability, T/C (compound 0.0316 µM) was 65.7% [middle of 4 runs]; the viability, T/C (compound 0.1 µM) is 55.1% [middle of 4 runs]; the viability, T/C (compound 0.316 µM) was 43.4% [middle of 4 runs]; the viability, T/C (compound 1 µM) is 41.8% [middle of 4 runs]; the viability, T/C (compound 3.16 µM) is 42.2% [middle of 4 runs]; the viability, T/C (compound 10 µM) was 40.1% [middle of 4 runs].
On to `NC1c2ccccc2OC12CCN(c1cnc3c(N4CCCc5ncccc54)n[nH]c3n1)CC2` (stereo unspecified), for which the viability, T/C reads like this: (compound 0.0316 µM) 48.2% [middle of 4 runs]; (compound 0.1 µM) 44.8% [middle of 4 runs]; (compound 0.316 µM) 36% [middle of 4 runs]; (compound 1 µM) 47.1% [middle of 4 runs]; (compound 3.16 µM) 41.8% [middle of 4 runs]; (compound 10 µM) 49% [middle of 4 runs]. The IC50 (curve of compound) is under 31.6 nM.
As to `Nc1ccn(C2OC(CO)C(O)C2(F)F)c(=O)n1` (stereo unspecified), the viability, T/C reads like this: (compound 0.0316 µM) 56.4% [middle of 4 runs]; (compound 0.1 µM) 57.3% [middle of 4 runs]; (compound 0.316 µM) 52.7% [middle of 4 runs]; (compound 1 µM) 43% [middle of 4 runs].
`C=CC(=O)Nc1cc(Nc2nccc(-c3cn(C)c4ccccc34)n2)c(OC)cc1N(C)CCN(C)C` + C#Cc1c(F)ccc2cc(O)cc(-c3ncc4c(N5CC6CCC(C5)N6)nc(OCC56CCCN5CC(F)C6)nc4c3F)c12: the IC50 was 142 nM (curve of first compound, second compound 0.0316 µM); 54.7 nM (curve of first compound, second compound 0.1 µM); 16.8 nM (curve of first compound, second compound 0.316 µM); under 3.16 nM (curve of first compound, second compound 1 µM); under 3.16 nM (curve of first compound, second compound 3.16 µM); under 3.16 nM (curve of first compound, second compound 10 µM). The viability, T/C is 79.4% (second compound 0.0316 µM, first compound 0.00316 µM); 70.4% (second compound 0.0316 µM, first compound 0.01 µM); 61.4% (second compound 0.0316 µM, first compound 0.0316 µM); 51% (second compound 0.0316 µM, first compound 0.1 µM); 44.9% (second compound 0.0316 µM, first compound 0.316 µM); 39.5% (second compound 0.0316 µM, first compound 1 µM). The viability, T/C (second compound 0.1 µM, first compound 0.00316 µM) was 78.5%; the viability, T/C (second compound 0.1 µM, first compound 0.01 µM) is 65.6%; the viability, T/C (second compound 0.1 µM, first compound 0.0316 µM) was 58%; the viability, T/C (second compound 0.1 µM, first compound 0.1 µM) is 40.9%; the viability, T/C (second compound 0.1 µM, first compound 0.316 µM) is 42.1%; the viability, T/C (second compound 0.1 µM, first compound 1 µM) was 36.4%. Further, the viability, T/C reads like this: (second compound 0.316 µM, first compound 0.00316 µM) 56.1%; (second compound 0.316 µM, first compound 0.01 µM) 57.7%; (second compound 0.316 µM, first compound 0.0316 µM) 41.7%; (second compound 0.316 µM, first compound 0.1 µM) 36.6%; (second compound 0.316 µM, first compound 0.316 µM) 32.8%; (second compound 0.316 µM, first compound 1 µM) 33.8%. Also, the viability, T/C was 35.2% (second compound 1 µM, first compound 0.00316 µM); 39.1% (second compound 1 µM, first compound 0.01 µM); 31.6% (second compound 1 µM, first compound 0.0316 µM); 29.2% (second compound 1 µM, first compound 0.1 µM); 29.5% (second compound 1 µM, first compound 0.316 µM); 30% (second compound 1 µM, first compound 1 µM). For the same compound, the viability, T/C is 30.3% (second compound 3.16 µM, first compound 0.00316 µM); 26.5% (second compound 3.16 µM, first compound 0.01 µM); 26.5% (second compound 3.16 µM, first compound 0.0316 µM); 26.1% (second compound 3.16 µM, first compound 0.1 µM); 26% (second compound 3.16 µM, first compound 0.316 µM); 24.6% (second compound 3.16 µM, first compound 1 µM). The viability, T/C is 22.1% (second compound 10 µM, first compound 0.00316 µM); 22.3% (second compound 10 µM, first compound 0.01 µM); 19.7% (second compound 10 µM, first compound 0.0316 µM); 19.3% (second compound 10 µM, first compound 0.1 µM); 20% (second compound 10 µM, first compound 0.316 µM); 17.5% (second compound 10 µM, first compound 1 µM).
